The values that follow are results of earlier work, collected in paper PMC12308805, “Ultrahigh-Throughput Virtual Screening Strategies against PPI Targets: A Case Study of STAT Inhibitors” (Journal of Chemical Information and Modeling, 2025).

SMILES strings stand for the structures.

One series deals with STAT3. To be noted: sheet 6QHD_actives_decoys; retrospective screening set for STAT3 SH2 domain (PDB 6QHD); […]; ref DUD-E; cited from earlier work.
Turning to `CCCCCC[C@H]1C(=O)O[C@@H](C)[C@@H](NC(=O)c2cccc(NC=O)c2O)C(=O)O[C@@H](C)[C@H]1OC(=O)CCC` [Decoy385], the Type entry is recorded as “Inactive (Decoy)”.
In the case of `COc1cc(NS(=O)(=O)c2ccc(NC(=S)NC(=O)c3cc(Cl)cc(Cl)c3)cc2)ncn1` [Decoy392], the Type result was “Inactive (Decoy)”.
`C[C@@H](O)CC(=O)SCCNC(=O)CCNC(=O)[C@@H](O)C(C)(C)CO[P@](=O)(O)O[P@](=O)(O)OC[C@H]1O[C@@H](n2cnc3c(N)ncnc32)[C@@H](O)[C@H]1OP(=O)(O)O` [Decoy404]: the Type entry is “Inactive (Decoy)”.
As for `Nn1c(SCC(=O)Nc2ccc(S(=O)(=O)Nc3nccs3)cc2)nnc1-c1ccncc1` [Decoy406], the Type entry is on record as “Inactive (Decoy)”.
For `CCOC(=O)[C@@](NC(=O)Nc1ccc(S(=O)(=O)Nc2nnc(SCC)s2)cc1)(c1ccc(F)cc1)C(F)(F)F` [Decoy418], the Type entry is on record as “Inactive (Decoy)”.
For `O=C(CCC(=O)Nc1ccc(S(=O)(=O)Nc2nccs2)cc1)Nc1ccc(S(=O)(=O)Nc2nccs2)cc1` [Decoy422], the Type entry is listed as “Inactive (Decoy)”.
Regarding `COc1cc(NS(=O)(=O)c2ccc(NC(=O)CCCCC(=O)Nc3ccc(S(=O)(=O)/N=c4/cc(OC)nc(OC)[nH]4)cc3)cc2)nc(OC)n1` [Decoy429], the Type result was “Inactive (Decoy)”.
On to `COC1=C[C@]23CCCN2CCc2cc4c(cc2[C@@H]3[C@@H]1OC(=O)[C@@](O)(CCCC(C)(C)O)CC(=O)O)OCO4` [Decoy432], for which the Type result is given as “Inactive (Decoy)”.

Still in this series, the particulars now being: sheet 6QHD_actives_decoys; retrospective screening set for STAT3 SH2 domain (PDB 6QHD); decoys generated with DUD-E and presumed inactive, not tested; ref DUD-E; cited from earlier work.
Regarding `CC(=O)N[C@@H]1[C@H]([C@H](O)[C@H](O)CO)O[C@@](O[C@H]2[C@@H](O)[C@@H](O[C@@H]([C@@H](O[C@@H]3O[C@@H](C)[C@H](O)[C@H](O)[C@@H]3O)[C@H](O)C=O)[C@H](O)CO)O[C@@H](CO)[C@H]2O)(C(=O)O)C[C@@H]1O` [Decoy382], the Type result is “Inactive (Decoy)”.
Regarding `Nc1ccc(/N=N\c2ccc3cc(S(=O)(=O)O)c(/N=N/c4ccc(/N=N/c5ccc(N)cc5N)c(S(=O)(=O)O)c4)c(O)c3c2)c(N)c1` [Decoy383], the Type entry is “Inactive (Decoy)”.
As to `NCCCCCCNc1nc2c(N)ncnc2n1[C@H]1O[C@@H](CO[P@](=O)(O)O[P@](=O)(O)OP(=O)(O)O)[C@@H](O)[C@H]1O` [Decoy384], the Type result is given as “Inactive (Decoy)”.
Regarding `COc1cc(NC(=S)/N=C(/NCCCN2CCOCC2)Nc2nc(C)cc(C)n2)cc(OC)c1OC` [Decoy386], the Type entry was “Inactive (Decoy)”.
As for `O=C(O)c1ccccc1NS(=O)(=O)c1ccc(NCCCN2CCOCC2)c([N+](=O)[O-])c1` [Decoy387], the Type result was “Inactive (Decoy)”.
Regarding `COc1cc(NC(=O)COC(=O)c2cc(OC)c(OC)cc2NC(=O)c2ccco2)cc(OC)c1` [Decoy388], the Type result is recorded as “Inactive (Decoy)”.
Take `[H]/N=C1/[C@@H](C)[C@@H](O)[C@@](C)(O)[C@@H](CC)OC(=O)[C@H](C)[C@H](O[C@@H]2C[C@@](C)(OC)[C@H](O)[C@H](C)O2)[C@@H](C)[C@H](O[C@H]2O[C@@H](C)C[C@@H](N(C)C)[C@H]2O)[C@@](C)(O)C[C@@H]1C` [Decoy389]: the Type result is given as “Inactive (Decoy)”.
With `Cc1n[nH]c2nc(SCC(=O)NCCc3ccc(S(N)(=O)=O)cc3)[n+](-c3ccc(Br)cc3)c(N)c12` [Decoy390], the Type entry is “Inactive (Decoy)”.
`NS(=O)(=O)c1ccc(NC(=O)CSc2ccc(NC(=O)c3cccc([N+](=O)[O-])c3)cc2)cc1` [Decoy391]: the Type result is on record as “Inactive (Decoy)”.
On to `COc1cc2cc(Oc3ccc(CCC(=O)O)c(O[C@@H]4O[C@H](CO)[C@@H](O)[C@H](O)[C@H]4O)c3)c(=O)oc2cc1O` [Decoy393], for which the Type entry is “Inactive (Decoy)”.
Consider `COC(=O)c1sc(NC(=O)c2ccc(C(=O)Nc3sc(C(=O)OC)c(C)c3C(=O)OC)cc2)c(C(=O)OC)c1C` [Decoy394], for which the Type entry is recorded as “Inactive (Decoy)”.
On to `CCOC(=O)C1=C(CNc2cc(S(=O)(=O)N(CC)CC)ccc2OC)NC(=O)N[C@H]1c1cc(C)ccc1C` [Decoy395], for which the Type result is listed as “Inactive (Decoy)”.
On to `COc1cc([C@@H]2OC[C@@]3(O)[C@@H](c4ccc(O[C@@H]5O[C@H](CO)[C@@H](O)[C@H](O)[C@H]5O)c(OC)c4)OC[C@@]23O)ccc1O` [Decoy396], for which the Type entry was “Inactive (Decoy)”.
Consider `O=C(O)c1[nH]nc(-c2ccc(O[C@H]3O[C@@H](CO)[C@@H](O)[C@@H](O)[C@H]3O)cc2O)c1-c1ccc2c(c1)OCCO2` [Decoy397], for which the Type result is “Inactive (Decoy)”.
With `CCN(CC)S(=O)(=O)c1ccc(NC(=O)CSc2nnc(N/N=C/c3cccc(O)c3)n2N)cc1` [Decoy398], the Type result is “Inactive (Decoy)”.
`Cc1cc(C)nc(N/C(=N\C(=S)NCCCN2CCOCC2)Nc2ccc(Cn3cncn3)cc2)n1` [Decoy399]: the Type entry is on record as “Inactive (Decoy)”.
With `NC(=O)CN(CC(N)=O)c1ccc(F)cc1OCCOc1cc(F)ccc1N(CC(N)=O)CC(N)=O` [Decoy400], the Type result is recorded as “Inactive (Decoy)”.
As for `CCOC(=O)CNS(=O)(=O)c1cc(-c2nnc(Nc3ccc(OCC(=O)NC)cc3)c3ccccc23)ccc1C` [Decoy401], the Type entry was “Inactive (Decoy)”.
Consider `Nc1ncnc2c1ncn2[C@@H]1O[C@@H](CO[P@@](=O)(O)O[P@@](=O)(O)OC[C@H](O)[C@H](O)[C@H](O)C=O)[C@@H](O)[C@H]1O` [Decoy402], for which the Type entry is given as “Inactive (Decoy)”.
Regarding `Nc1ncnc2c1ncn2[C@H]1O[C@@H](CO[P@@](=O)(O)O[P@@](=O)(O)OC[C@H](O)[C@H](O)[C@H](O)C=O)[C@@H](O)[C@@H]1O` [Decoy403], the Type entry was “Inactive (Decoy)”.
For `CC(=O)N[C@@H]1[C@@H](OC(C)=O)[C@H](OC(C)=O)[C@@H](COC(C)=O)O[C@H]1Sc1nnc(COc2ccccc2C)n1C1CCCC1` [Decoy405], the Type result is given as “Inactive (Decoy)”.
As to `CC(=O)O[C@H]1[C@@H](O)[C@H](CO)O[C@H](O[C@@H](/C=N\C23CC4CC(CC(C4)C2)C3)[C@@H](CO)O[C@H](O)/C=N/C23CC4CC(CC(C4)C2)C3)[C@@H]1O` [Decoy407], the Type entry is listed as “Inactive (Decoy)”.
As for `CC(=O)O[C@@H]1[C@@H](O)[C@@H](O[C@@H](/C=N\C23CN4CN(CN(C4)C2)C3)[C@@H](CO)O[C@H](O)/C=N/C23CN4CN(CN(C4)C2)C3)O[C@@H](CO)[C@H]1O` [Decoy408], the Type result is given as “Inactive (Decoy)”.
For the compound `CC1=C(/C(O)=N/c2ccc(S(N)(=O)=O)cc2)[C@H](c2ccco2)C(C#N)=C(SCC(=O)Nc2cccc(C(F)(F)F)c2)N1` [Decoy409], the Type result is on record as “Inactive (Decoy)”.
In the case of `CC(=O)O[C@@H]1[C@@H](O)[C@@H](O[C@@H](C/N=C/c2ccc(O)c3ccccc23)[C@@H](CO)O[C@H](O)C/N=C/c2ccc(O)c3ccccc23)O[C@@H](CO)[C@H]1O` [Decoy410], the Type entry is on record as “Inactive (Decoy)”.
Take `COc1c([C@@H]2OC[C@H](OC(C)=O)[C@@H](OC(C)=O)[C@H]2OC(C)=O)c(O)cc2oc(-c3ccc(O[C@H]4O[C@@H](CO)[C@@H](O)[C@@H](O)[C@H]4O)cc3)cc(=O)c12` [Decoy411]: the Type entry was “Inactive (Decoy)”.
Turning to `COc1ccc(N([C@@H](C)C(=O)Nc2ccc(S(=O)(=O)Nc3ccc(Cl)c(C(F)(F)F)c3)cc2)S(C)(=O)=O)cc1` [Decoy412], the Type result is “Inactive (Decoy)”.
As for `CC(=O)OC[C@@H]1O[C@H](O)[C@H](OC(C)=O)[C@H](OC(C)=O)[C@@H]1O[C@@H]1O[C@H](COC(C)=O)[C@@H](O)[C@H](OC(C)=O)[C@@H]1OC(C)=O` [Decoy413], the Type result was “Inactive (Decoy)”.
For the compound `CCSc1nnc(/N=C(\O)CSc2n[nH]c(N/N=C/c3cn(C)nc3C)n2)s1` [Decoy414], the Type result is “Inactive (Decoy)”.
`CCCCn1nc(NC(=O)c2cc(OCC)c(OCC)c(OCC)c2)c2cc3cc(C)ccc3nc21` [Decoy415]: the Type result is reported as “Inactive (Decoy)”.
Turning to `CCN(CC)CCCNC(=S)N(CCN1CCOCC1)Cc1cc2cc3c(cc2[nH]c1=O)OCCO3` [Decoy416], the Type entry is reported as “Inactive (Decoy)”.
With `CC(C)(CC(=O)O)CC(=O)N1Cc2nc[nH]c2C[C@H]1c1nc(-c2ccc(F)c(Cl)c2)no1` [Decoy417], the Type entry is given as “Inactive (Decoy)”.
Turning to `CCCCCCCCCC(=O)O[C@H]1[C@@H](O[C@@]2(CO)O[C@@H](CO)[C@@H](O)[C@H]2O)O[C@@H](CO)[C@@H](OC(=O)C(C)C)[C@@H]1OC(=O)C(C)C` [Decoy419], the Type result is on record as “Inactive (Decoy)”.
In the case of `CCCCCCCCCC(=O)O[C@@H]1[C@@H](O[C@@]2(CO)O[C@@H](CO)[C@@H](O)[C@H]2O)O[C@@H](CO)[C@@H](OC(=O)C(C)C)[C@H]1OC(=O)C(C)C` [Decoy420], the Type entry is “Inactive (Decoy)”.
As to `O=C(CCSc1n[nH]c(N/N=C/c2cccc(Br)c2)n1)Nc1ccccc1[N+](=O)[O-]` [Decoy421], the Type result is “Inactive (Decoy)”.
For the compound `CCCCCOc1ccc([C@@H]2C(C(=O)c3c(C)nc4ccccn34)=C(O)C(=O)N2CCN(C)C)cc1OCC` [Decoy423], the Type entry is “Inactive (Decoy)”.
`Cc1ccc(S(=O)(=O)OC[C@H](OS(=O)(=O)c2ccc(C)cc2)[C@H](O)[C@H](O)[C@@H](COS(=O)(=O)c2ccc(C)cc2)OS(=O)(=O)c2ccc(C)cc2)cc1` [Decoy424]: the Type entry is “Inactive (Decoy)”.
For the compound `CC(=O)O[C@H]([C@H](OC(C)=O)[C@H](OC(C)=O)C(=O)NC1CCCCCC1)[C@H](OC(C)=O)C(=O)NC1CCCCCC1` [Decoy425], the Type entry is given as “Inactive (Decoy)”.
For the compound `CC(=O)O[C@H]([C@@H](OC(C)=O)[C@H](OC(C)=O)C(=O)NC1CCCCCC1)[C@H](OC(C)=O)C(=O)NC1CCCCCC1` [Decoy426], the Type entry was “Inactive (Decoy)”.
Turning to `COC(=O)c1sc(NC(=O)CCCS(=O)(=O)c2nc(-c3ccccc3OC)cc(C(F)(F)F)n2)c(C(N)=O)c1C` [Decoy427], the Type entry is given as “Inactive (Decoy)”.
`O=c1c(-c2ccc(O[C@@H]3O[C@H](CO)[C@@H](O)[C@H](O)[C@H]3O)cc2)coc2c(CN3CCCC3)c(O)c(CN3CCCC3)c(O)c12` [Decoy428]: the Type result is “Inactive (Decoy)”.
For `Cc1ccc(N(C[C@H](O)[C@@H](O)[C@H](O)CO)/N=N/c2cccc(S(=O)(=O)O)c2)cc1C` [Decoy430], the Type result was “Inactive (Decoy)”.
On to `CCN[C@@H](c1ccc(I)cc1)c1ccc(OC)c(Br)c1` [Decoy431], for which the Type entry was “Inactive (Decoy)”.
